Experimental findings from PubChem BioAssay (NCI) are described below.

As a reminder, the GI50 is the concentration that inhibits growth by half. As usually defined, the TGI is the concentration giving total growth inhibition. Lower therefore signals more potent growth arrest.

Test systems include UACC-62 melanoma; HCT-15 colon; BT-549 breast; SF-295 CNS; COLO 205 colon; CCRF-CEM leukemia; HCT-116 colon; NCI-H226 lung; NCI/ADR-RES ovarian; OVCAR-4 ovarian.
Common to all, as to experiment: DTP human tumour cell line panel, 48 h

“And” between values parts separate entries of the source, which are not always exact repeats. Identical values can stand only once.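 Protocol summary: plate cells (96-well), add compound at 5 concentrations, incubate 48 h, interpolate endpoints linearly. Abbreviation: GI50, concentration required for 50% inhibition of growth. TGI is the concentration that stops growth completely.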

As to `CC(=O)Nc1cccc(-n2c(=O)n(C3CC3)c(=O)c3c(Nc4ccc(I)cc4F)n(C)c(=O)c(C)c32)c1`, the GI50 was < 0.01 µM and 0.00184 µM in the assay on UACC-62 melanoma; 0.65 µM and 0.864 µM in the assay with HCT-15 colon; 6.33 µM and > 9.61 µM in the assay with BT-549 breast; 7.21 µM and > 10 µM in the assay with SF-295 CNS; < 0.01 µM and 0.00125 µM with COLO 205 colon; 9.15 µM and > 10 µM in the assay on CCRF-CEM leukemia. Besides, the GI50 was < 0.01 µM and 0.00986 µM with HCT-116 colon; 4.37 µM and > 4.88 µM in the assay with NCI-H226 lung; 2.29 µM and > 10 µM in the assay on NCI/ADR-RES ovarian; 0.515 µM and 2.65 µM with OVCAR-4 ovarian. The total growth inhibition concentration (TGI) in the assay on UACC-62 melanoma was 0.0182 µM; with HCT-15 colon it was greater than 75.3 µM; in the assay on BT-549 breast it was 35.5 µM and > 10 µM; with SF-295 CNS, 59.4 µM and > 10 µM; with CCRF-CEM leukemia it was greater than 100 µM; in the assay on HCT-116 colon, 12.5 µM and > 10 µM. The TGI in the assay with NCI-H226 lung was 47.8 µM and > 10 µM; with NCI/ADR-RES ovarian, 40.6 µM and > 10 µM; with OVCAR-4 ovarian it was greater than 100 µM.
Regarding `CC(=O)OCC1OC(O[C@@H]2C[C@H]3C(C)(C)[C@H](OC(C)=O)CC[C@]3(C)[C@H]3CCC4=C([C@@H](C)C[C@@H](O)[C@H](O)C(C)(C)O)CC[C@@]4(C)[C@@]32C)C(O)C(O)C1O` (some centres not stated), the GI50 was 12.6 µM in the assay on UACC-62 melanoma; 17.1 µM with HCT-15 colon; 15.4 µM in the assay with BT-549 breast; 17.5 µM in the assay on SF-295 CNS; 16 µM in the assay with COLO 205 colon; 15.9 µM in the assay on CCRF-CEM leukemia. Further, the GI50 in the assay with HCT-116 colon is 14.2 µM; with NCI-H226 lung it was 17.3 µM; in the assay on NCI/ADR-RES ovarian it was 20.4 µM; in the assay with OVCAR-4 ovarian it was 17 µM. Also, the TGI was determined as 25.1 µM in the assay with UACC-62 melanoma; 30.8 µM with HCT-15 colon; 28.7 µM in the assay with BT-549 breast; 31.6 µM in the assay on SF-295 CNS; 30.2 µM with COLO 205 colon; 34.1 µM with CCRF-CEM leukemia. For the same compound, the TGI in the assay with HCT-116 colon was 27.2 µM; in the assay with NCI-H226 lung, 32 µM; in the assay on NCI/ADR-RES ovarian, 43.5 µM; in the assay on OVCAR-4 ovarian it was 31.1 µM.
Regarding `O=C(NNc1nc2c(F)cccc2n2cccc12)c1cnccn1`, the GI50 in the assay with UACC-62 melanoma is 0.477 µM; with HCT-15 colon it was 0.178 µM; with BT-549 breast, 0.671 µM; in the assay with SF-295 CNS, 0.401 µM; with COLO 205 colon, 0.426 µM; in the assay on CCRF-CEM leukemia, 0.126 µM. The GI50 in the assay on HCT-116 colon was 0.214 µM; in the assay with NCI-H226 lung, 0.522 µM; in the assay with NCI/ADR-RES ovarian, 0.327 µM; with OVCAR-4 ovarian it was 0.469 µM. In addition, the TGI in the assay on UACC-62 melanoma was 6.28 µM; in the assay on HCT-15 colon it was greater than 48.2 µM; in the assay on BT-549 breast, 50.8 µM; with SF-295 CNS, 16 µM; in the assay on COLO 205 colon it was greater than 33.4 µM; with HCT-116 colon, 23.7 µM. Moreover, the results for the TGI with NCI-H226 lung, in the assay on NCI/ADR-RES ovarian and in the assay on OVCAR-4 ovarian were 7 µM, 23.3 µM and 11 µM, respectively.
Regarding `CCc1c2c(nc3cc4c(cc13)OCO4)-c1cc3c(c(=O)n1C2)COC(=O)[C@]3(O)CC`, the GI50 with UACC-62 melanoma was less than 0.001 µM; in the assay with HCT-15 colon, 0.182 µM and 0.137 µM; in the assay on BT-549 breast it was 0.0654 µM and 0.0367 µM; in the assay on SF-295 CNS, less than 0.001 µM; in the assay with COLO 205 colon, 1.17 µM; in the assay with HCT-116 colon, 1.31 µM. For the same compound, the GI50 is less than 0.001 µM with NCI-H226 lung; 0.323 µM and 1.27 µM in the assay with OVCAR-4 ovarian. For the same compound, the concentration for total growth inhibition (TGI) in the assay on UACC-62 melanoma was 0.195 µM and 0.409 µM; in the assay with HCT-15 colon it was greater than 100 µM; in the assay on BT-549 breast it was 5.29 µM and 0.782 µM; in the assay with COLO 205 colon, greater than 100 µM; in the assay with HCT-116 colon it was greater than 100 µM; in the assay with NCI-H226 lung, 0.227 µM. In the assay with OVCAR-4 ovarian, this compound gave a total growth inhibition concentration (TGI) greater than 100 µM.
Consider `O=C(c1ccc2ccccc2c1)c1c(C(F)(F)F)n([O-])c2cc(Cl)c(Cl)cc2[n+]1=O`, for which the GI50 was 1.61 µM in the assay on UACC-62 melanoma; 1.56 µM in the assay with HCT-15 colon; 1.48 µM in the assay on BT-549 breast; 1.66 µM in the assay with SF-295 CNS; 2.41 µM in the assay on CCRF-CEM leukemia; 1.58 µM in the assay with HCT-116 colon. The GI50 in the assay with NCI-H226 lung is 1.46 µM; in the assay with NCI/ADR-RES ovarian it was 1.8 µM; with OVCAR-4 ovarian it was 1.54 µM. The concentration for total growth inhibition (TGI) is 2.96 µM in the assay on UACC-62 melanoma; 2.97 µM in the assay on HCT-15 colon; 2.8 µM in the assay with BT-549 breast; 3.06 µM with SF-295 CNS; 4.78 µM in the assay with CCRF-CEM leukemia; 2.92 µM with HCT-116 colon. The TGI with NCI-H226 lung stood at 2.92 µM; in the assay on NCI/ADR-RES ovarian, 3.95 µM; in the assay with OVCAR-4 ovarian, 3.17 µM.
Take `CCC(C)C1NC(=O)c2nc(oc2-c2ccccc2)-c2csc(n2)-c2csc(n2)-c2nc(oc2C)-c2coc(n2)CNC(=O)C(C(C)CC)NC1=O` (configuration not stated): the GI50 is 0.0361 µM with HCT-15 colon; 0.0659 µM with BT-549 breast; 0.0469 µM in the assay on SF-295 CNS; 0.278 µM in the assay on NCI/ADR-RES ovarian; 0.0258 µM with OVCAR-4 ovarian. For the same compound, the TGI stood at 0.18 µM in the assay on HCT-15 colon; 0.204 µM in the assay on BT-549 breast; 0.178 µM with SF-295 CNS; 0.0335 µM with HCT-116 colon; 2.38 µM in the assay on NCI/ADR-RES ovarian; 0.0982 µM in the assay on OVCAR-4 ovarian.
